These antisense oligonucleotides have a phosphorothioate backbone; sugars and methylation of C are not fully specified.

One data set concerns the target GNA13. The following applies: ASO.
In a further data set the target is E2F1. The following applies: ASO.
Further: test concentration or dose not given here.

Turning to AAAAGATATTAAAACAGC, the remaining target (mRNA or protein) (fraction of control) with GNA13 is at least 1.

Turning to AAAGTCGTATTCATGGAT, the remaining target (mRNA or protein) (fraction of control) with GNA13 is at least 1.

Take AACAGATCAAAGCCTGCA: the remaining target (mRNA or protein) (fraction of control) with GNA13 came to 0.64.

As for AACCCCACACCCCTCCTCCC, in the data set with E2F1, the remaining target (mRNA or protein) (fraction of control) is 0.86.

In the data set with E2F1, AACCTTTAAGACAGAAGTGC showed a remaining target (mRNA or protein) (fraction of control) of 0.74.

Turning to AAGCAAGTCTGTCTTGTT, the remaining target (mRNA or protein) (fraction of control) with GNA13 came to 0.79.

Regarding AAGCATTTTGAAAGGAAC, in the data set with GNA13, the remaining target (mRNA or protein) (fraction of control) was at least 1.

In the data set with E2F1, AAGCCCTGTCAGAAATCCAG registered a remaining target (mRNA or protein) (fraction of control) of 0.58.

Turning to AAGCCTCCCCACCTGGCCTG, in the data set with E2F1, the remaining target (mRNA or protein) (fraction of control) was found to be 0.28.

AAGGTGGACTTGCCGCTC: the remaining target (mRNA or protein) (fraction of control) with GNA13 is 0.24.

The sequence AAGTCCCGGCCACGGAATTC yielded a remaining target (mRNA or protein) (fraction of control) with E2F1 of 0.87.

In turn, AAGTGGTAGTCGAGGGCCTC gave a remaining target (mRNA or protein) (fraction of control) with E2F1 of 0.77.

AATATTTTACAGATTCAC came in with a remaining target (mRNA or protein) (fraction of control) with GNA13 of at least 1.

AATTCTGGTTGTAAACTG: the remaining target (mRNA or protein) (fraction of control) in the data set with GNA13 was at least 1.

ACACACACATGCTCACACAC displayed a remaining target (mRNA or protein) (fraction of control) with E2F1 of 0.56.

Take ACACCACACAGACTCCTTCC: in the data set with E2F1, the remaining target (mRNA or protein) (fraction of control) came out at 0.6.

ACCCAGTTGAAATTCTCG gave a remaining target (mRNA or protein) (fraction of control) with GNA13 of 0.43.

ACCCTCATACCTTTGATC displayed a remaining target (mRNA or protein) (fraction of control) with GNA13 of 0.09.

ACCTACGGTCTCCTCAGGGC returned a remaining target (mRNA or protein) (fraction of control) with E2F1 of 0.21.

Sequence ACCTCGGCAGCCCAGTTCAG yielded a remaining target (mRNA or protein) (fraction of control) with E2F1 of at least 1.

The sequence ACGACATCATCTTATCTC displayed a remaining target (mRNA or protein) (fraction of control) with GNA13 of 0.39.

The sequence ACTAAGATTTTCAAGAAG came in with a remaining target (mRNA or protein) (fraction of control) with GNA13 of 0.61.

In the data set with GNA13, ACTCGTCAGCAGGCAGCC had a remaining target (mRNA or protein) (fraction of control) of at least 1.

Sequence AGAACAGAATTATGGAGA yielded a remaining target (mRNA or protein) (fraction of control) with GNA13 of 0.31.

Regarding AGAAGTCCTCCCGCACATGC, the remaining target (mRNA or protein) (fraction of control) with E2F1 is 0.51.

The sequence AGCACACGGACAGCACGG returned a remaining target (mRNA or protein) (fraction of control) in the data set with GNA13 of 0.51.

In the data set with GNA13, AGCAGCAGGATCTTCACC had a remaining target (mRNA or protein) (fraction of control) of 0.54.

In the data set with E2F1, AGGAAGCGCTTGGTGGTCAG showed a remaining target (mRNA or protein) (fraction of control) of 0.72.

In the data set with E2F1, AGGGACCCCTGCCCTTGCTC gave a remaining target (mRNA or protein) (fraction of control) of 0.23.

AGGTCTCTGATGCCCTCGCC: the remaining target (mRNA or protein) (fraction of control) in the data set with E2F1 stood at 0.53.

In turn, AGTCCGCCATCTTGCCGC showed a remaining target (mRNA or protein) (fraction of control) with GNA13 of at least 1.

AGTGGTGAAGTGGTGGTA gave a remaining target (mRNA or protein) (fraction of control) with GNA13 of 0.43.

The sequence ATATGAAGCTTCTCTCGA registered a remaining target (mRNA or protein) (fraction of control) in the data set with GNA13 of 0.42.

Take ATATTGTAAGAAAACCCT: the remaining target (mRNA or protein) (fraction of control) in the data set with GNA13 was at least 1.

On to ATGAGCTGGATGCCCTCAAG, for which the remaining target (mRNA or protein) (fraction of control) with E2F1 was 0.56.

The sequence ATGTCATAGATGCGCCGCTT gave a remaining target (mRNA or protein) (fraction of control) in the data set with E2F1 of 0.77.

As to CACAGGAAAACATCGATCGG, in the data set with E2F1, the remaining target (mRNA or protein) (fraction of control) is 0.9.

CACCCAGGCCTCAGTTCCTT: in the data set with E2F1, the remaining target (mRNA or protein) (fraction of control) amounted to 0.92.

Consider CACCGTCCTACACGCCCAGC, for which the remaining target (mRNA or protein) (fraction of control) in the data set with E2F1 was determined as 0.44.

In turn, CACCTTTTCCTGGATGGCGG gave a remaining target (mRNA or protein) (fraction of control) with E2F1 of 0.47.

In the case of CAGCTGCTGCTCGCTCTCCT, in the data set with E2F1, the remaining target (mRNA or protein) (fraction of control) came to 0.63.

CAGGCGGCGGCGGCGGCGCG: the remaining target (mRNA or protein) (fraction of control) with E2F1 came out at 0.82.

CCACTCACCTCTCCCATCTC: in the data set with E2F1, the remaining target (mRNA or protein) (fraction of control) is 0.72.

Regarding CCCATGGCTGTCAGTCAGTC, in the data set with E2F1, the remaining target (mRNA or protein) (fraction of control) was at least 1.

Consider CCGCTGCCTGCAAAGTCCCG, for which, in the data set with E2F1, the remaining target (mRNA or protein) (fraction of control) was 0.92.

CCTCGGCGAGGGCTCGATCC registered a remaining target (mRNA or protein) (fraction of control) in the data set with E2F1 of 0.8.

As for CGAGCAGGGCCTCCAGCGCC, the remaining target (mRNA or protein) (fraction of control) with E2F1 amounted to 0.9.

Turning to CGATCGGGCCTTGTTTGCTC, the remaining target (mRNA or protein) (fraction of control) in the data set with E2F1 was determined as 0.72.

As to CGCAGCTGCGTAGTACAGAT, the remaining target (mRNA or protein) (fraction of control) with E2F1 is at least 1.

CGCGGCGGAGATGATGACGA registered a remaining target (mRNA or protein) (fraction of control) in the data set with E2F1 of at least 1.

CGGCGGGCGGCCGAGCGCGG registered a remaining target (mRNA or protein) (fraction of control) with E2F1 of 0.83.

Take CTCAGAAGTGACCTCCTGGG: the remaining target (mRNA or protein) (fraction of control) with E2F1 amounted to 0.73.

The sequence CTCCCTCACTTTCCCAATAA had a remaining target (mRNA or protein) (fraction of control) with E2F1 of 0.71.

Sequence CTGCAATGCTACGAAGGTCC returned a remaining target (mRNA or protein) (fraction of control) with E2F1 of 0.26.

The sequence CTTCATTCCCCGGTACATGC gave a remaining target (mRNA or protein) (fraction of control) with E2F1 of 0.72.

In the case of GAACTCCTCAGGGAGGAGGC, the remaining target (mRNA or protein) (fraction of control) in the data set with E2F1 came to 0.59.

GACCACAGGGTCTGGGCTGG returned a remaining target (mRNA or protein) (fraction of control) with E2F1 of 0.62.

GAGGAGGCCGGAGAAGTCCT displayed a remaining target (mRNA or protein) (fraction of control) with E2F1 of 0.75.

The record behind these values is the OligoGym collection.
